For 16 molecules, IC50 results are on record in paper PMC10445084, “Green synthesis, anti-proliferative evaluation, docking, and MD simulations studies of novel 2-piperazinyl quinoxaline derivatives using hercynite sulfaguanidine-SA as a highly efficient and reusable nanocatalyst” (RSC Advances, 2023).

A word on the IC50: it is the concentration at which inhibition is half-maximal.

The test system of one assay is HCT116. The assay can be described thus: MTT cytotoxicity assay, HCT116 colon cancer cells. The assay is classed as cell-based, human. The conditions noted are these: 48 h incubation. On the procedure: (§1) The tested cells were cultured in medium and dialyzed fetal bovine serum (FBS) and then as suspended germs in Minimum Essential Medium (MEM) were seeded into 96-well plates (at the density of 10 × 10^4 viable cells per well). After 24 h incubation in 5% CO2 at 37 °C and cell attachment. Then the evaluated compounds (at 0.1–250 μg ml^−1 concentrations) were added to the cultured cells and incubated for another 24/48 h.[18,19] After washing of the cell containing plates with […], 20 μl of fresh 4,5-(dimethylthiazol-2-yl)-2,5-diphenyl tetrazolium bromide (MTT) solution (5 mg ml^−1) was added to each well, and incubated with cells for additional 4 h in the same conditions. Then, the medium was discarded and approximately 70 μl of DMSO was used and the resulted solution was vigorously mixed to dissolve and remove the residual tetrazolium and purple formazan crystals in each well. Next, the absorbance of each well was measured at 492 nm and 630 nm (for absorbance of MTT formazan and the reference wavelength respectively) with an ELISA plate reader. Stock solutions of all the tested compounds were prepared in DMSO, while the final dilutions were made with distilled water in order to maintain a maximum concentration of 0.5% DMSO per well. All the evaluated compounds were also tested for cytotoxicity on HFF normal cells at the above-mentioned concentrations and in the same conditions and incubation periods of time. Curves were fit using Graph Pad Prism as described in the Methods section.[19]
(§2) All the evaluated N-Mannich bases (2a–2d, 3a–3h and 4a–4d) were investigated for anti-proliferative activity against two cancer cell lines, HCT116 (human colon cancer) and KOV3 (human ovarian carcinoma). HFF (human foreskin fibroblasts) normal cells were also tested to determine the selectivity of their cytotoxic effects in killing cancer over normal cells. […] After 24 and 48 h of incubation, cell viability was measured by the [3-(4,5-dimethylthiazol-2-yl)-2,5-diphenyltetrazolium bromide] (MTT) colorimetric assay.[34] At the end of each incubation period, the IC50 value and cell viability for each N-Mannich base were calculated in different concentrations (0.15–2.4 μM) and determined graphically as established in Fig. 3. […] A DMSO equivalent control (n = 2 ± SEM) was also included for each cell line tested. Standard graph was plotted by taking concentration of the drug in X axis and relative cell viability in Y axis (cell viability (%) = mean OD/control OD × 100%) in Graph Pad Prism 8.
(§3) 2.5. Biological evaluations: In vitro cytotoxicity
(§4) This rapid assay is based on the reduction of tetrazolium salt to dark blue formazan product by mitochondrial enzymes of living, not dead cells after 24 and 48h exposure of cells to tested compounds at different concentrations. DMSO (with the less concentration than 1%) was the solvent in this biological test. serial concentrations were made by diluting stock solution of each compound (50μM) with culture media (RPMI 1640). […]

A further assay deals with SKOV3. Put plainly: MTT cytotoxicity assay, SKOV3 ovarian cancer cells. The assay is classed as cell-based, human. Conditions: 48 h incubation. The method, then: as §1, §2, §3, §4
Assay [1] relates to HFF (human foreskin fibroblasts) normal cells. Put plainly: MTT cytotoxicity assay, HFF normal cells. The assay is classed as cell-based. The conditions noted are these: Fibroblast, 48 h incubation. On the procedure:
as §1, §2, §3, §4
Background: Tetrazolium assays rely on reduction of a dye to a coloured formazan, in cell work by metabolically active cells.

The next assay has as its system HCT116 and SKOV3. Put plainly: MTT assay, statements pooled over both cancer cell lines. Format: cell-based. The conditions noted are these: Homo sapiens, read-out: IC50 on the tested cancer cell lines. On the procedure:
as §1, with “Then, the medium was discarded and approximately 70 μl of DMSO was used and the resulted solution was vigorously mixed to dissolve and remove the residual tetrazolium and purple formazan crystals in each well.” left out, “Stock solutions of all the tested compounds were prepared in DMSO, while the final dilutions were made with distilled water in order to maintain a maximum concentration of 0.5% DMSO per well.” left out, “Curves were fit using Graph Pad Prism as described in the Methods section.[19]” left out
All the evaluated N-Mannich bases (2a–2d, 3a–3h and 4a–4d) were investigated for anti-proliferative activity against two cancer cell lines, HCT116 (human colon cancer) and KOV3 (human ovarian carcinoma). […] After 24 and 48 h of incubation, cell viability was measured by the [3-(4,5-dimethylthiazol-2-yl)-2,5-diphenyltetrazolium bromide] […]

Turning to `O=C1C(=O)N(CN2CCN(c3cnc4ccccc4n3)CC2)c2ccccc21` [2a, 1-((4-(quinoxalin-2-yl)piperazin-1-yl)methyl) indoline-2,3-dione], the concentration for half-maximal inhibition (IC50) in the assay with HCT116 (Homo sapiens, HCT-116, 48 h) is 7.03 µM; in the assay with SKOV3 (Homo sapiens, SK-OV-3, 48 h) it was 7.67 µM; in assay [1], 83.6 µM.

With `O=C1C(=O)N(CN2CCN(c3cnc4ccccc4n3)CC2)c2ccc(Br)cc21` [2b, 5-bromo-1-((4-(quinoxalin-2-yl)piperazin-1-yl)methyl) indoline-2,3-dione], the IC50 is 5.12 µM in the assay with HCT116 (Homo sapiens, HCT-116, 48 h); 5.43 µM in the assay with SKOV3 (Homo sapiens, SK-OV-3, 48 h); 58.1 µM in assay [1].

Consider `O=C1C(=O)N(CN2CCN(c3cnc4ccccc4n3)CC2)c2ccc(Cl)cc21` [2c, 5-chloro-1-((4-(quinoxalin-2-yl)piperazin-1-yl)methyl) indoline-2,3-dione], for which the IC50 in the assay with HCT116 (Homo sapiens, HCT-116, 48 h) was 6.06 µM; in the assay with SKOV3 (Homo sapiens, SK-OV-3, 48 h), 6.49 µM; in assay [1], 82 µM.

In the case of `Cc1ccc2c(c1)C(=O)C(=O)N2CN1CCN(c2cnc3ccccc3n2)CC1` [2d, 5-methyl-1-((4-(quinoxalin-2-yl)piperazin-1-yl)methyl) indoline-2,3-dione], the IC50 in the assay with HCT116 (Homo sapiens, HCT-116, 48 h) came to 5 µM; in the assay with SKOV3 (Homo sapiens, SK-OV-3, 48 h), 5.3 µM; in assay [1] it was 58.1 µM.

As to `NC(=O)NN=C1C(=O)N(CN2CCN(c3cnc4ccccc4n3)CC2)c2ccccc21` [3a, 2-(2-oxo-1-((4-(quinoxalin-2-yl)piperazin-1-yl)methyl)indolin-3-ylidene) hydrazine-1-carboxamide], the IC50 in the assay with HCT116 (Homo sapiens, HCT-116, 48 h) turned out to be 1.99 µM; in the assay with SKOV3 (Homo sapiens, SK-OV-3, 48 h), 2.21 µM; in assay [1], 13.5 µM.

Regarding `NC(=S)N/N=C1/C(=O)N(CN2CCN(c3cnc4ccccc4n3)CC2)c2ccccc21` [3b, 2-(2-oxo-1-((4-(quinoxalin-2-yl)piperazin-1-yl)methyl)indolin-3-ylidene) hydrazine-1-carbothioamide], the IC50 was 3.03 µM in the assay with HCT116 (Homo sapiens, HCT-116, 48 h); 3.38 µM in the assay with SKOV3 (Homo sapiens, SK-OV-3, 48 h); 24.6 µM in assay [1].

With `NC(=O)N/N=C1/C(=O)N(CN2CCN(c3cnc4ccccc4n3)CC2)c2ccc(Br)cc21` [3c, 2-(5-bromo-2-oxo-1-((4-(quinoxalin-2-yl)piperazin-1-yl)methyl)indolin-3-ylidene) hydrazine-1-carboxamide], the IC50 in the assay on HCT116 (Homo sapiens, HCT-116, 48 h) came to 3.35 µM; in the assay on SKOV3 (Homo sapiens, SK-OV-3, 48 h), 3.52 µM; in assay [1], 35.9 µM.

On to `NC(=S)N/N=C1/C(=O)N(CN2CCN(c3cnc4ccccc4n3)CC2)c2ccc(Br)cc21` [3d, 2-(5-bromo-2-oxo-1-((4-(quinoxalin-2-yl)piperazin-1-yl)methyl)indolin-3-ylidene) hydrazine-1-carbothioamide], for which the IC50 was found to be 4.85 µM in the assay with HCT116 (Homo sapiens, HCT-116, 48 h); 5.03 µM in the assay on SKOV3 (Homo sapiens, SK-OV-3, 48 h); 49.6 µM in assay [1].

For `NC(=O)N/N=C1/C(=O)N(CN2CCN(c3cnc4ccccc4n3)CC2)c2ccc(Cl)cc21` [3e, 2-(5-chloro-2-oxo-1-((4-(quinoxalin-2-yl)piperazin-1-yl)methyl)indolin-3-ylidene) hydrazine-1-carboxamide], the IC50 stood at 4.3 µM with HCT116 (Homo sapiens, HCT-116, 48 h); 4.96 µM with SKOV3 (Homo sapiens, SK-OV-3, 48 h); 37.6 µM in assay [1].

In the case of `NC(=S)N/N=C1/C(=O)N(CN2CCN(c3cnc4ccccc4n3)CC2)c2ccc(Cl)cc21` [3f, 2-(5-chloro-2-oxo-1-((4-(quinoxalin-2-yl)piperazin-1-yl)methyl)indolin-3-ylidene) hydrazine-1-carbothioamide], the IC50 in the assay on HCT116 (Homo sapiens, HCT-116, 48 h) was 4.92 µM; in the assay on SKOV3 (Homo sapiens, SK-OV-3, 48 h), 5.15 µM; in assay [1], 57.1 µM.

Regarding `Cc1ccc2c(c1)C(=NNC(N)=O)C(=O)N2CN1CCN(c2cnc3ccccc3n2)CC1` [3g, 2-(5-methyl-2-oxo-1-((4-(quinoxalin-2-yl)piperazin-1-yl)methyl)indolin-3-ylidene)hydrazine-1-carboxamide], the IC50 in the assay on HCT116 (Homo sapiens, HCT-116, 48 h) was determined as 2.92 µM; with SKOV3 (Homo sapiens, SK-OV-3, 48 h), 3.25 µM; in assay [1], 22.8 µM.

Regarding `Cc1ccc2c(c1)/C(=N\NC(N)=S)C(=O)N2CN1CCN(c2cnc3ccccc3n2)CC1` [3h, 2-(5-methyl-2-oxo-1-((4-(quinoxalin-2-yl)piperazin-1-yl)methyl)indolin-3-ylidene) hydrazine-1-carbothioamide], the IC50 was found to be 3.23 µM in the assay on HCT116 (Homo sapiens, HCT-116, 48 h); 3.46 µM in the assay with SKOV3 (Homo sapiens, SK-OV-3, 48 h); 26.6 µM in assay [1].

On to `CN(C)C(=N)NC(=N)N=C1C(=O)N(CN2CCN(c3cnc4ccccc4n3)CC2)c2ccccc21` [4a, N’-[4-(quinoxaline-2-yl)-piperazine-1-yl]methyl-1-H-indole,2,3-dion-3-metformin], for which the IC50 is 1.23 µM with HCT116 (Homo sapiens, HCT-116, 48 h); 1.51 µM with SKOV3 (Homo sapiens, SK-OV-3, 48 h); 9.11 µM in assay [1].

Take `CN(C)C(=N)NC(=N)/N=C1/C(=O)N(CN2CCN(c3cnc4ccccc4n3)CC2)c2ccc(Br)cc21` [4b, N′-[4-(quinoxaline-2-yl)-piperazine-1-yl]methyl-5-bromo-1-H-indole,2,3-dion-3-metformin]: the IC50 in the assay with HCT116 is 0.458 µM; in the assay on HCT116 (Homo sapiens, HCT-116, 48 h), 0.45 µM; in the assay with SKOV3, 0.488 µM; in the assay on SKOV3 (Homo sapiens, SK-OV-3, 48 h), 0.48 µM; in assay [1], 6.95 µM; in the assay on HCT116 and SKOV3, below 1000 nM.

Turning to `CN(C)C(=N)NC(=N)/N=C1/C(=O)N(CN2CCN(c3cnc4ccccc4n3)CC2)c2ccc(Cl)cc21` [4c, N′-[4-(quinoxaline-2-yl)-piperazine-1-yl]methyl-5-chloro-1-H-indole,2,3-dion-3-metformin], the IC50 was 0.392 µM in the assay on HCT116; 0.39 µM in the assay on HCT116 (Homo sapiens, HCT-116, 48 h); 0.44 µM in the assay with SKOV3; 0.44 µM with SKOV3 (Homo sapiens, SK-OV-3, 48 h); 6.81 µM in assay [1]; below 1000 nM in the assay on HCT116 and SKOV3.

On to `Cc1ccc2c(c1)/C(=N\C(=N)NC(=N)N(C)C)C(=O)N2CN1CCN(c2cnc3ccccc3n2)CC1` [4d], for which the IC50 in the assay on HCT116 (Homo sapiens, HCT-116, 48 h) was determined as 1.54 µM; in the assay with SKOV3 (Homo sapiens, SK-OV-3, 48 h) it was 1.72 µM; in assay [1], 10 µM.
